The values that follow come from patent USRE40558E1, “Therapeutic uses of di-aryl acid derivatives” (Sanofi-Aventis Deutschland GmbH, priority 1999, dated 2008).

`Cc1cc(OCc2ccccc2)cc(OCCCc2ccccc2)c1C(=O)O` [Example 15, 4-Benzyloxy-2-methyl-6-(3-phenyl-propoxy)-benzoic Acid]: the melting point was in the range of 109 to 111 °C.
On to `Cc1cc(OCc2ccccc2)cc(OCC2CCCCC2)c1C(=O)O` [Example 15a, 4-Benzyloxy-2-cyclohexylmethoxy-6-methyl-benzoic Acid], for which the melting point lay within 127 to 128 °C.
With `Cc1cc(OCc2ccccc2)cc(OCCCC(C)C)c1C(=O)O` [Example 15b, 4-Benzyloxy-2-methyl-6-(4-methyl-pentyloxy)-benzoic Acid], the melting point lay in the range of 83 to 85 °C.

What is called melting point is the temperature, or range, at which the solid turns liquid.
